# Laboratory results: patent US20150307841A1, “Composition for Promoting Differentiation and Proliferation of Neural Stem Cell and Neural Precursor Cell” (priority 2014, published 2015)
# What was measured:
# [1] = system: memory-deficient model rats; assay: Morris water maze test in memory-deficient model rats; assay type: in vivo, rat; conditions: Experimental Example 2
# Source text: Ibotenic acid is a neurotoxin present in mushrooms and is known to cause powerful damage to neurons when directly injected into the brain of mice or rats. In particular, because senile plaques and neuronal cell death appear in the entorhinal cortex and hippocampus in early Alzheimer's disease patients (Ueki A et al. J Neurol Sci, 1994), memory-deficient model rats were generated by injecting ibotenic acid (IBO) into the entorhinal cortex. The surgical protocol followed Heo H et al.'s method (J Ethnopharmacol, 2009) with some modifications. In the model animals, the injection of ibotenic acid induces cell death not only in the entorhinal cortex but also in the CA and DG regions of the hippocampus and impairs hippocampus-related learning and memory abilities.
# The 6-week-old rats were anesthetized with equithesin (350 mM pentobarbital sodium, 250 mM chloral hydrate, 85 mM MgSO4 and 40% propylene glycol in 10% ethanol, 2 mL/kg). To induce cell death in the dentate gyrus and hippocampus in addition to the entorhinal cortex, ibotenic acid (1.5 μL per animal, 1 mg/mL) was injected into the entorhinal cortex as follows. The rat was placed in a stereotaxic device (Stoelting Co., Wood Dale, Ill., USA) with the incisor bar 3.4 mm below the interaural line. The needle was positioned 10° right to the midsaggital plane. […]
# For each trial, the rat was allowed to swim for a maximum of 60 seconds to find the platform and to rest for 1 minute on the platform upon success. […] The swimming time and length of the trial were recorded and monitored using a video camera. […] The captured video images were analyzed by a video tracking system (EthoVision Water Maze program, Noldus Information Technology, Wageningen, the Netherlands). The analyzed information included the swimming time in the target quadrant and the number of virtual platform crossings to find the removed platform. […]
# [2] = system: hippocampal neural precursor cells (NPCs); assay: Ki67 immunostaining of cultured embryonic neural precursor cells (proliferation); assay type: cell-based, rat
# Source text: Pregnant Sprague-Dawley rats purchased from Orient Animal Breeding Center (a branch of Charles River Laboratories, Gyeonggi-do, Korea) were sacrificed by exposing to CO2 inhalation. Hippocampal neural precursor cells (NPCs) were isolated from the brain of the E16 rat embryo according to the method of Shin M H et al. (Exp Mol Med, 2002) with slight modifications.
# Briefly, hippocampi were aseptically dissected from the embryonic forebrain, mechanically dissociated in Ca^2+/Mg^2+-free Hank's balanced salt solution (HBSS) and then plated at 7×10^5 cells/cm^2 on 60-mm dishes pre-coated with 15 μg/mL poly-L-ornithine and 1 μg/mL fibronectin. The neural precursor cells were cultured in serum-free N2 media supplemented with 10 ng/mL bFGF in 5% CO2 for 3 days and then detached using 0.05% trypsin-ethylenediaminetetraacetic acid (EDTA). The neural precursor cells were plated on 12-mm cover glasses (Bellco Co., Vineland, N.J., USA) and cultured one more day in N2 media supplemented with 10 ng/mL bFGF in 5% CO2 (primary culturing).
# Following the primary culturing in (1), immunohistochemical analysis was conducted using Ki67 antibodies in order to confirm the effect of soyasaponin I on proliferation of the embryonic neural precursor cells. […]
compound,measurement,setting,value
C[C@@H]1O[C@@H](O[C@H]2[C@H](O[C@H]3[C@H](O[C@H]4CC[C@@]5(C)[C@@H](CC[C@]6(C)[C@@H]5CC=C5[C@@H]7CC(C)(C)C[C@@H](O)[C@]7(C)CC[C@]56C)[C@@]4(C)CO)O[C@H](C(=O)O)[C@@H](O)[C@@H]3O)O[C@H](CO)[C@H](O)[C@@H]2O)[C@H](O)[C@H](O)[C@H]1O [soyasaponin I],Morris water maze number of crossings across the target probe,[1]; probe trial session,recovery to almost those of the normal group
same,Morris water maze swimming time in the target quadrant,[1]; probe trial session,recovery to almost those of the normal group
same,Morris water maze escape latency time compared to the ibotenic acid-administered group,"[1]; training trial, third and fourth days",decreased
same,Increase in the number of proliferating (Ki67) cells compared with the normal group (Vehicle),[2]; 2 μM soyasaponin I,2.5 fold
same,"Proliferation of the neural precursor cells (Ki67), concentration dependence","[2]; 0.5, 1, 2 μM",increased rapidly
